From the NIST ThermoML archive (doi:10.1021/je800756r)
Where “and” joins values, the source holds several entries; their conditions need not be identical. Identical values can stand only once.

Assay: xn = mol fraction of the nth substance listed
Conditions: Capillary rise

FCF [difluoromethane] + CCC
Conditions	surface tension liquid-gas
280 K, x2 = 0.01	9.7 mN/m
280 K, x2 = 0.013	9.4 mN/m
280 K, x2 = 0.037	9.5 mN/m
280 K, x2 = 0.07	9 mN/m
280 K, x2 = 0.087	8.7 mN/m
280 K, x2 = 0.092	8.4 mN/m
280 K, x2 = 0.115	8.5 mN/m
280 K, x2 = 0.12	8.4 mN/m
280 K, x2 = 0.121	8 mN/m
280 K, x2 = 0.123	8.2 mN/m
280 K, x2 = 0.124	8.2 mN/m
280 K, x2 = 0.131	7.9 mN/m
280 K, x2 = 0.141	8 mN/m
280 K, x2 = 0.515	6.4 mN/m
280 K, x2 = 0.588	6.5 mN/m
280 K, x2 = 0.605	6.5 mN/m
280 K, x2 = 0.648	6.8 mN/m and 6.7 mN/m
280 K, x2 = 0.662	6.8 mN/m
280 K, x2 = 0.682	6.8 mN/m
280 K, x2 = 0.697	7 mN/m
280 K, x2 = 0.706	7.1 mN/m
280 K, x2 = 0.729	7.1 mN/m
280 K, x2 = 0.755	7.4 mN/m
280 K, x2 = 0.775	7.4 mN/m
280 K, x2 = 0.813	7.8 mN/m
280 K, x2 = 0.826	7.8 mN/m
280 K, x2 = 0.898	8.4 mN/m
280 K, x2 = 0.931	8.8 mN/m
280 K, x2 = 0.942	8.9 mN/m
280 K, x2 = 0.968	9.1 mN/m
290 K, x2 = 0.002	8.1 mN/m
290 K, x2 = 0.003	8 mN/m
290 K, x2 = 0.004	8 mN/m
290 K, x2 = 0.005	7.9 mN/m
290 K, x2 = 0.039	7.5 mN/m
290 K, x2 = 0.065	7.2 mN/m
290 K, x2 = 0.078	7 mN/m
290 K, x2 = 0.081	7.2 mN/m
290 K, x2 = 0.09	7.1 mN/m
290 K, x2 = 0.095	6.9 mN/m
290 K, x2 = 0.097	6.9 mN/m
290 K, x2 = 0.114	6.6 mN/m
290 K, x2 = 0.143	6.5 mN/m
290 K, x2 = 0.156	6.3 mN/m
290 K, x2 = 0.175	5.9 mN/m
290 K, x2 = 0.185	5.9 mN/m
290 K, x2 = 0.198	6 mN/m
290 K, x2 = 0.209	5.7 mN/m
290 K, x2 = 0.485	5 mN/m
290 K, x2 = 0.506	4.9 mN/m
290 K, x2 = 0.525	5 mN/m
290 K, x2 = 0.539	5.1 mN/m
290 K, x2 = 0.58	5.1 mN/m
290 K, x2 = 0.596	5.1 mN/m
290 K, x2 = 0.604	5.2 mN/m
290 K, x2 = 0.648	5.6 mN/m
290 K, x2 = 0.691	5.9 mN/m
290 K, x2 = 0.768	6.1 mN/m
290 K, x2 = 0.805	6.4 mN/m
290 K, x2 = 0.896	7 mN/m
290 K, x2 = 0.917	7.3 mN/m
290 K, x2 = 0.925	7.4 mN/m
290 K, x2 = 0.975	7.7 mN/m
290 K, x2 = 0.986	7.9 mN/m
290 K, x2 = 0.999	8.1 mN/m
300 K, x2 = 0.02	6 mN/m
300 K, x2 = 0.045	5.7 mN/m
300 K, x2 = 0.087	5.4 mN/m
300 K, x2 = 0.11	5.2 mN/m
300 K, x2 = 0.12	5 mN/m
300 K, x2 = 0.124	5 mN/m
300 K, x2 = 0.149	4.6 mN/m
300 K, x2 = 0.154	4.7 mN/m
300 K, x2 = 0.22	4.1 mN/m
300 K, x2 = 0.573	4 mN/m
300 K, x2 = 0.682	4.5 mN/m
300 K, x2 = 0.692	4.7 mN/m
300 K, x2 = 0.703	4.7 mN/m
300 K, x2 = 0.744	4.9 mN/m
300 K, x2 = 0.748	5.1 mN/m
300 K, x2 = 0.761	5 mN/m
300 K, x2 = 0.771	5.1 mN/m
300 K, x2 = 0.782	5.1 mN/m
300 K, x2 = 0.79	5.2 mN/m
300 K, x2 = 0.824	5.5 mN/m
300 K, x2 = 0.834	5.4 mN/m
300 K, x2 = 0.838	5.5 mN/m
300 K, x2 = 0.852	5.6 mN/m
300 K, x2 = 0.865	5.8 mN/m
300 K, x2 = 0.881	5.8 mN/m
300 K, x2 = 0.893	6 mN/m
300 K, x2 = 0.897	5.9 mN/m
300 K, x2 = 0.911	6 mN/m
300 K, x2 = 0.918	6.2 mN/m
300 K, x2 = 0.938	6.4 mN/m
300 K, x2 = 0.982	6.8 mN/m
300 K, x2 = 0.994	6.7 mN/m
300 K, x2 = 0.999	6.9 mN/m
